Literature values as cited in PubChem BioAssay AID1259409 (Chemical Carcinogenesis Research Information System (CCRIS), 2018).

Tested on: rodent chemically induced tumor inhibition, incidence and multiplicity
Experiment: CCRIS tumor inhibitor studies

In the case of `C[C@]12CC[C@H](O)CC1=CC[C@@H]1[C@@H]2CC[C@]2(C)C(=O)CC[C@@H]12`, the “tumour outcome (control, treated, inhibition, significance)” value (Carcinogen: N-METHYL-N-NITROSOUREA, 684-93-5, Dose [Inhibitor]: 0, 5 PPM IN DIET FOR DURATION OF STUDY BEGINNING 1 WK PRIOR TO CARCINOGEN DOSE (STUDY DURATION: 109 D), Route [Inhibitor]: ORAL, Species: RAT, Strain/Sex: SPRAGUE-DAWLEY/FEMALE, Target Tissue: Type of Lesion: MAMMARY GLAND: TUMOR, Dose [Carcinogen]: 50 MG/KG BW IN ACIDIFIED SALINE (PH 5.0) ONCE, Promoter: NONE USED) is listed as 100%, 89%, 11%, not calculated, the “tumour outcome (control, treated, inhibition, significance)” value (Carcinogen: N-METHYL-N-NITROSOUREA, 684-93-5, Dose [Inhibitor]: 0, 24 PPM IN DIET FOR DURATION OF STUDY BEGINNING 1 WK PRIOR TO CARCINOGEN DOSE (STUDY DURATION: 109 D), Route [Inhibitor]: ORAL, Species: RAT, Strain/Sex: SPRAGUE-DAWLEY/FEMALE, Target Tissue: Type of Lesion: MAMMARY GLAND: TUMOR, Dose [Carcinogen]: 50 MG/KG BW IN ACIDIFIED SALINE (PH 5.0) ONCE, Promoter: NONE USED) is listed as 100%, 80%, 20%, not calculated and the “tumour outcome (control, treated, inhibition, significance)” value (Carcinogen: N-METHYL-N-NITROSOUREA, 684-93-5, Dose [Inhibitor]: 0, 120 PPM IN DIET FOR DURATION OF STUDY BEGINNING 1 WK PRIOR TO CARCINOGEN DOSE (STUDY DURATION: 109 D), Route [Inhibitor]: ORAL, Species: RAT, Strain/Sex: SPRAGUE-DAWLEY/FEMALE, Target Tissue: Type of Lesion: MAMMARY GLAND: TUMOR, Dose [Carcinogen]: 50 MG/KG BW IN ACIDIFIED SALINE (PH 5.0) ONCE, Promoter: NONE USED) is listed as 100%, 80%, 20%, not calculated. The “tumour outcome (control, treated, inhibition, significance)” value (Carcinogen: N-METHYL-N-NITROSOUREA, 684-93-5, Dose [Inhibitor]: 0, 400 MG/KG DIET FOR DURATION OF STUDY BEGINNING 1 WK PRIOR TO CARCINOGEN DOSE (STUDY DURATION: 187 D), Route [Inhibitor]: ORAL, Species: RAT, Strain/Sex: SPRAGUE-DAWLEY/FEMALE, Target Tissue: Type of Lesion: MAMMARY GLAND: TUMOR, Dose [Carcinogen]: 35 MG/KG BW ONCE, Promoter: NONE USED) was 85%, 0%, 100%, p<0.01, the “tumour outcome (control, treated, inhibition, significance)” value (Carcinogen: N-METHYL-N-NITROSOUREA, 684-93-5, Dose [Inhibitor]: 0, 600 PPM IN DIET FOR DURATION OF STUDY BEGINNING 1 WK PRIOR TO CARCINOGEN DOSE (STUDY DURATION: 109 D), Route [Inhibitor]: ORAL, Species: RAT, Strain/Sex: SPRAGUE-DAWLEY/FEMALE, Target Tissue: Type of Lesion: MAMMARY GLAND: TUMOR, Dose [Carcinogen]: 50 MG/KG BW IN ACIDIFIED SALINE (PH 5.0) ONCE, Promoter: NONE USED) was 100%, 40%, 60%, not calculated and the “tumour outcome (control, treated, inhibition, significance)” value (Carcinogen: N-METHYL-N-NITROSOUREA, 684-93-5, Dose [Inhibitor]: 0, 800 MG/KG DIET FOR DURATION OF STUDY BEGINNING 1 WK PRIOR TO CARCINOGEN DOSE (STUDY DURATION: 187 D), Route [Inhibitor]: ORAL, Species: RAT, Strain/Sex: SPRAGUE-DAWLEY/FEMALE, Target Tissue: Type of Lesion: MAMMARY GLAND: TUMOR, Dose [Carcinogen]: 35 MG/KG BW ONCE, Promoter: NONE USED) was 70%, 0%, 100%, p<0.01. The “tumour outcome (control, treated, inhibition, significance)” value (Carcinogen: N-NITROSOMORPHOLINE, 59-89-2, Dose [Inhibitor]: 0.25% IN DIET (STUDY DURATION: 51 WK), Route [Inhibitor]: ORAL, Species: RAT, Strain/Sex: SPRAGUE-DAWLEY/MALE, Target Tissue: Type of Lesion: LIVER: HEMANGIOSARCOMA, Dose [Carcinogen]: 120 MG/L IN DRINKING WATER FOR FIRST 7 WK OF STUDY, Promoter: NONE USED) was 8/35 (23%), 1/35 (3%), 88%, p<0.05, the “tumour outcome (control, treated, inhibition, significance)” value (Carcinogen: N-NITROSOMORPHOLINE, 59-89-2, Dose [Inhibitor]: 0.25% IN DIET (STUDY DURATION: 51 WK), Route [Inhibitor]: ORAL, Species: RAT, Strain/Sex: SPRAGUE-DAWLEY/MALE, Target Tissue: Type of Lesion: LIVER: HEPATOCELLULAR ADENOMA, MIXED CELL, Dose [Carcinogen]: 120 MG/L IN DRINKING WATER FOR FIRST 7 WK OF STUDY, Promoter: NONE USED) was 32/35 (91%), 28/35 (80%), 14%, not calculated and the “tumour outcome (control, treated, inhibition, significance)” value (Carcinogen: N-NITROSOMORPHOLINE, 59-89-2, Dose [Inhibitor]: 0.25% IN DIET (STUDY DURATION: 51 WK), Route [Inhibitor]: ORAL, Species: RAT, Strain/Sex: SPRAGUE-DAWLEY/MALE, Target Tissue: Type of Lesion: LIVER: HEPATOCELLULAR CARCINOMA, Dose [Carcinogen]: 120 MG/L IN DRINKING WATER FOR FIRST 7 WK OF STUDY, Promoter: NONE USED) was 33%, 20%, 39%, not calculated. For the same molecule, the “tumour outcome (control, treated, inhibition, significance)” value (Carcinogen: N-methyl-N-nitrosourea, 684-93-5, Dose [Inhibitor]: 125 mg/kg in diet for 6 wks starting 6 wks after administration of carcinogen, Route [Inhibitor]: Oral, Species: Rat, Strain/Sex: Sprague Dawley/Female, Target Tissue: Type of Lesion: Mammary gland: tumors, Dose [Carcinogen]: 50 mg/kg injected once in 50 d old mice, tumors allowed to develop for 6 wks before inhibitor administration (Test mater, Promoter: None used) was 93.3%, 96.7%, -0.03%, not significant, the “tumour outcome (control, treated, inhibition, significance)” value (Carcinogen: N-methyl-N-nitrosourea, 684-93-5, Dose [Inhibitor]: 1000 mg/kg in diet for 6 wks starting 6 wks after administration of carcinogen, Route [Inhibitor]: Oral, Species: Rat, Strain/Sex: Sprague Dawley/Female, Target Tissue: Type of Lesion: Mammary gland: tumors, Dose [Carcinogen]: 50 mg/kg injected once in 50 d old mice, tumors allowed to develop for 6 wks before inhibitor administration (Test mater, Promoter: None used) was 93.3%, 76.7%, 17.8%, not significant and the “tumour outcome (control, treated, inhibition, significance)” value (Carcinogen: NONE USED, Dose [Inhibitor]: 0, 0.45% IN DIET FOR DURATION OF STUDY (STUDY DURATION: 84 WK), Route [Inhibitor]: ORAL, Species: RAT, Strain/Sex: F344/MALE, Target Tissue: Type of Lesion: TESTES: LEYDIG CELL TUMOR, Promoter: NONE USED) was 8/8 (100%), 0/13 (0%), 100%, p<0.005. For the same molecule, the “tumour outcome (control, treated, inhibition, significance)” value (Carcinogen: NONE USED, Dose [Inhibitor]: 450 MG/KG IN SESAME OIL 3/WK BEGINNING AT 5-6 WK OF AGE AND CONTINUING FOR DURATION OF STUDY (STUDY DURATION: 18 MO), Route [Inhibitor]: INTRAGASTRIC, Species: MOUSE, Strain/Sex: C3H-A/A/FEMALE, Target Tissue: Type of Lesion: MAMMARY GLAND: TUMOR, Promoter: NONE USED) was 21/78 (27%), 9/77 (12%), 56%, p<0.05, the “tumour outcome (control, treated, inhibition, significance)” value (Carcinogen: NONE USED, Dose [Inhibitor]: 450 MG/KG IN SESAME OIL 3/WK BEGINNING AT 5-6 WK OF AGE AND CONTINUING FOR DURATION OF STUDY (STUDY DURATION: 18 MO), Route [Inhibitor]: INTRAGASTRIC, Species: MOUSE, Strain/Sex: C3H-AVY/A/FEMALE, Target Tissue: Type of Lesion: MAMMARY GLAND: TUMOR, Promoter: NONE USED) was 19/27 (70%), 5/23 (22%), 68%, p<0.005 and the “tumour outcome (control, treated, inhibition, significance)” value (Carcinogen: NONE USED, Dose [Inhibitor]: 450 MG/KG IN SESAME OIL 3/WK FOR DURATION OF STUDY (STUDY DURATION: 9 MO), Route [Inhibitor]: INTRAGASTRIC, Species: MOUSE, Strain/Sex: C3H-AVY/A/FEMALE, Target Tissue: Type of Lesion: MAMMARY GLAND: TUMOR, Promoter: NONE USED) was 14/26 (54%), 0/24 (0%), 100%, not calculated.
